These results are taken from patent US7893110B2 (Givaudan S.A., priority 2005, dated 2011).

Assay [1] deals with mouth. The assay can be described thus: Application in toothpaste: cooling sensation felt by panelist. It is filed as in vivo. As to conditions: toothgel with 2.5 g of 2% sol. in PG per 100 g, plus peppermint oil; 1 g brushed on teeth, mouth rinsed with water. The text has this:
[table] The chemicals are mixed in the toothgel, and 1 g of the toothgel is put on a toothbrush and a panelist's teeth are brushed. The mouth is rinsed with water and the water is spit out.

In assay [2] the test system is mouth. The assay can be described thus: Application in mouthwash: cooling sensation. It is filed as in vivo. As to conditions: mouthwash with 50 mL of 1% sol. in alcohol per liter, plus peppermint oil; 30 mL put in the mouth, swished, gargled and spit out. As for the experimental part:
[table] All the ingredients are mixed. 30 mL of obtained solution is put in the mouth, swished around, gargled and spit out.

Regarding `COc1ccc(NC(=O)C23CC4CC(CC(C4)C2)C3)cc1` [Example 2F, Adamantane-1-carboxylic acid (4-methoxy-phenyl)-amide], the “cooling sensation in the mouth” value in the assay on mouth [1] is listed as “cooling sensation”.
`CC(C)(C)C1CCCCC1C(=O)Nc1ccc(CO)cc1` (centres unmarked) [Example 2L, 2-tert-Butyl-cyclohexanecarboxylic acid (4-hydroxymethyl-phenyl)-amide]: in the assay on mouth [2], the “cooling sensation in the mouth” value is “strong cooling sensation”.
